Columns and labels:
[1] = system: U87MG and U373MG cells; assay: Cholesterol measurement (total cholesterol assay kit) in GBM cells; format: cell-based, human; settings: PD 10 μM or U18666a 1 μM, 24 hours
Protocol: (§1) FIGS. 15A and 15B show the results that PD promotes accumulation of cholesterol in lysosomes. Cells were treated with DMSO, PD (10 μM), or U18666a (1 μM) for 24 hours. […] Total cholesterol levels are expressed in cholesterol (μg) per protein (mg) of cell lysate and are shown as means±SD from two independent experiments.
Cells treated as described above were processed using a total cholesterol assay kit (STA384, Cell Biolabs) according to the manufacterer's instructions. Cholesterol esters and free cholesterol were quantified by homogenizing 10^6 cells extracted from a 200 μL mixture of chloroform: isopropanol: NP-40 (7:11:0.1). After centrifugation of the extract at 15,000× g for 10 minutes, the organic phase was collected and evaporated at 50° C. The extract was resuspended in 200 μL of a 1× cholesterol assay diluent prior to analysis. The colorimetric signal was analyzed using an ELISA reader (Versa Max, Molecular Devices, Sunnyvale, Calif., USA) at 540 nm. Cellular cholesterol results were reported as μg of cholesterol per mg of cell protein.

[2] = system: cell-surface LDLR; assay: Cell surface LDLR analysis by flow cytometry, GBM cells; format: cell-based, human; settings: PD 10 μM or U18666a 1 μM, 24 hours
Protocol: (§2) FIGS. 16A to 16D show the results that PD increases the expression of LDLR on cell surfaces in GBM cells. […] GAPDH was used as a loading control. […] GAPDH was used as a loading control.
(§3) Cells treated as described in FIG. 16 were separated from plates and resuspended in PBS. After washing with 1% BSA in PBS, the cells were incubated with a primary antibody against human LDLR (Abcam) for 30 minutes. Then, the cells were washed before incubation with an Alexa-Fluor 488-conjugated secondary antibody (Invitrogen) for 30 minutes. The stained cells were washed and resuspended. Fluorescence was analyzed by a FACScalibur flow cytometer (Becton Dickinson, San Jose, Calif., USA) using CellQuest™ software.
(§4) Brain is the most cholesterol-rich organ of the body, containing about 20% of total body cholesterol. […] As can be confirmed in FIG. 16A, in consistent with these reports, the LDLR protein level was markedly elevated in U87MG and U373MG cells relative to normal human astrocytes. […] Then, the cell surface expression of LDLR was confirmed by flow cytometry.

[3] = system: LDLR; assay: Immunoblot of LDLR in U87MG, U373MG cells and normal astrocytes; format: cell-based, human; settings: PD 5 μM and 10 μM or U18666a 1 μM, 24 hours; U87MG, U373MG and normal astrocytes
Protocol: as §2
(§5) Cells treated with the concentrations and materials described in FIGS. 1-3B, 7, 8, 10, 13, 16, 18, and 20 were lysed in buffer containing 20 mM Tris-HCl (pH 7.5), 150 mM NaCl, 1 mM EDTA, 1 mM Na2EDTA, 1 mM EGTA, 1% NP-40, 1% sodium deoxycholate, 1 mM Na3VO4, 1 mM MPI, 1 mM PMSF, and PI cocktails for 15 to 20 minutes on ice. Cell lysates were separated by SDS-PAGE and transferred to nitrocellulose membranes. Immunodetection was performed with the following primary antibodies: rabbit anti-LC3B, rabbit anti-cathepsin B, rabbit-anti GAPDH (Cell Signaling Technology, Danvers, Mass.), mouse anti-SQSTM1/p62, and goat anti-cathepsin D (Santa CruzKPL, Gaithersburg, Md., USA) were incubated at room temperature for 1 hour. The protein bands were detected with ECL western Blotting Substrate (Thermo Fisher Scientific, Waltham, Mass., USA).
as §4

[4] = system: cell-surface LDLR; assay: Cell surface LDLR analysis by flow cytometry, normal astrocytes; format: cell-based, human; settings: PD 10 μM or U18666a 1 μM, 24 hours
Protocol: as §2, §3, §4

[5] = system: U87MG and U373MG cells; assay: Cholesterol cell-based detection assay (filipin III staining) in GBM cells; design: species or system human
Protocol: as §1
Cells grown on coverslips were treated with the materials. Then, the cells were fixed with 4% PFA at room temperature for 10 minutes. The solution of Filipin III (Cayman) was added for staining of […] cholesterol and the samples were incubated in a dark room for 30 minutes. The images were examined under a Zeiss laser confocal microscope.
The present inventors concluded that PD inhibits the maturation of autophagosome into autolysosomes by inhibiting lysosomal degradation and an autophagosome-lysosome fusion in GBM cells. […] To examine whether the defect in the autophagosome-lysosome fusion by PD is due to altered intracellular cholesterol levels, the PD-treated GBM cells were stained with filipin-III, which is a fluorescent dye that binds to cholesterol. […] As can be confirmed in FIG. 14A, this filipin-III staining pattern is very similar to that found in GBM cells treated with U18666A, implying that PD blocks cholesterol release from lysosome and accumulates cholesterol in lysosomes.

[6] = system: normal astrocytes; assay: BODIPY FL LDL uptake assay, normal astrocytes; format: cell-based, human; settings: PD 10 μM or U18 1 μM, 24 hours
Protocol: (§6) Cells were treated with DMSO, PD (10 μM), or U18 (1 μM) for 24 hours and subsequently loaded with BODIPY™ FL LDL. BODIPY-LDL uptake was visualized by confocal microscopy. Nuclei were stained with DAPI (blue). Quantification shown on the right graph represents a relative fold change from three independent experiments±SD.
(§7) Cells seeded on coverslips were treated with the materials and then the culture medium was replaced with BODIPY™ FL LDL (Thermo Fisher Scientific) at a working concentration of 5 μg/mL in a medium. The cells were additionally incubated at 37° C. for 1 hour. The degree of LDL uptake was measured using a Zeiss laser confocal microscope.
(§8) Based on the previous study results of the present inventors that PD increases cell surface LDLR expression and accumulate cholesterol within lysosomes, whether PD can increase the uptake of exogenous LDL was examined Cells pretreated with PD or U18666A were incubated with BODIPY FL-labeled LDL particles for 1 hour and the LDL uptake was observed by a confocal microscope. Upon analysis of these cells, it was observed that PD caused about a 6-fold increase in LDL uptake and it was a level similar to that detected in the U18666A-treated cells.

[7] = system: U87MG and U373MG cells; assay: BODIPY FL LDL uptake assay, GBM cells; format: cell-based, human; settings: U18 1 μM 24 hours, BODIPY FL LDL 1 hour
Protocol: as §6, §7, §8

[8] = system: Ax1; assay: Western blot of Ax1 expression after natural compounds, U87MG and U373MG cells; format: cell-based, human; settings: varying concentrations, 48 hours
Protocol: Cells were washed with PBS and dissolved using a RIPA buffer (150 mM NaCl, 1% NP-40, 0.5% DOC, 0.1% SDS, 50 mM Tris (pH 8.0), 1 mM EDTA, 1 mM PMSF, 1 mM NaF, 1 mM Na3PO4, 1 μL aprotinin, leupeptin, and pepstatin), and proteins were isolated by centrifugation at 3,000× g for 20 minutes. An equal amount (20 μg) of each of the proteins was separated by 10% sodium dodecyl sulfate-polyacrylamide gel electrophoresis (SDS-PAGE) and the proteins separated using the Trans-blot unit were transferred to a nitrocellulose (NC) membrane. The membrane to which proteins were transferred was blocked with 5% non-fat dry milk (Tris buffered saline (TBS-T) containing 0.1% Tween-20) at room temperature for 1 hour, and primary antibodies, which were diluted at a 1:1,000 concentration, were allowed to react the proteins at 4° C. for 16 hours. After washing with PBS, the resultant was allowed to react with secondary antibodies, which were diluted at a 1:5,000 concentration, at room temperature for 1 hour. A Pierce ECL Western Blotting Substrate, which also underwent a washing process, was coated onto the membrane and allowed to react in a dark room with a film, and thereby, specific protein bands were confirmed. […]

[9] = system: U87MG and U373MG cells; assay: Clonogenic assay, GBM cells; format: cell-based, human; settings: co-treatment MβCD 100 μM with PD 10 μM or 20 μM, 7 days
Protocol: FIGS. 19A and 19B show the results that MβCD restores PD-mediated decrease in cell viability. […] Data shown represent the means of quintuplicate measurements which were repeated three times. The results are presented as a percentage of control (means±SD).
Approximately 2×10^3 cells were seeded into each 6-well plate and then treated as described in FIG. 19. After 7 days, the cells were washed with PBS and stained with 0.5% crystal violet.
Furthermore, as can be confirmed in FIG. 19B, a colony formation assay was performed to confirm the effects of MβCD on PD-mediated GBM cell death.

[10] = system: U87MG and U373MG cells; assay: WST1 cell viability assay, GBM cells; format: cell-based, human; settings: combined treatment MβCD 100 μM and PD 10 μM, 72 hours
Protocol: FIGS. 6A and 6B show the results that PD induces a decrease in cell viability and vacuole formation. […] Data shown represent the means of quintuplicate measurements which were repeated three times. The results are presented as a percentage of control (means±SD).
Cell cytotoxicity was assessed by WST1 assay. U87 and U373 cells were each seeded in a 96-well plate (5×10^3 cells/well) and treated with different concentrations of platycodin D (PD). Then, cells were incubated with a WST1 reagent (Dogen, Seoul, Korea) for 2 hours before reading the plate. Absorbance was measured at 450 nm using an ELISA reader (Versa Max, Molecular Devices, Sunnyvale, Calif., USA).

[11] = system: LC3B and SQSTM1/p62; assay: Immunoblot of LC3B and SQSTM1/p62 in GBM cells (U87MG and U373MG); format: cell-based, human; settings: combined treatment MβCD 100 μM and PD 10 μM
Protocol: FIGS. 2A and 2B show the results that an extract of Platycodon grandiflorum (PG) increases the levels of LC3-II and p62. […] GAPDH was used as a loading control.
FIGS. 3A to 3C show the results that PD inhibits autophagic flux in GBM cells. […] The expression of LC3B and SQSTM1 was confirmed by immunoblot analysis. […] GAPDH was used as a loading control.
The human glioma cell lines, U87MG and U373MG, were cultured respectively in RPMI-1640 (Welgene) and DMEM (Welgene, Daegu, Korea) supplemented with 10% fetal bovine serum (FBS, JR Scientific) and 1% antibiotics (Ab, Welgene). All cultures were maintained at 37° C. in a humidified incubator containing 5% CO2.
as §5

[12] = system: U87MG and U373MG cells; assay: LysoTracker assay with GFP-LC3B (autophagosome-lysosome fusion) in GBM cells; format: cell-based, human; settings: co-treatment MβCD 100 μM and PD 10 μM, 48 hours
Source text: […] Then, cells were stained with LysoTracker (red) and DAPI (blue). The merged images show an overlap between GFP-LC3 and LysoTracker (yellow). The panels on the right are higher-magnification images of the boxed regions.
Cultured cells seeded in plates with microscope coverslips were transfected with a pGFP-LC3B plasmid using Lipofectamine 3000 (Thermo Fisher Scientific) according to the manufacturer's instructions. After the transfection, the cells were fixed with 4% paraformaldehyde (PFA) in phosphate-buffered saline (PBS) at room temperature for 10 minutes. The images were examined under a laser confocal microscope (Zeiss, Oberkochen, Baden-Wurttemberg, Germany).
To stain acidic compartments, 50 nM LysoTrackerRedDND-99 (Thermo Fisher Scientific) was added to a medium at 37° C. with 5% CO2 for 30 minutes prior to fixation. The nuclei were labeled with 4,6-diamidino-2-phenylindole (DAPI, Sigma). The slides were finally mounted using a Faramount mounting medium (Dako, Glostrup, Denmark). The images were examined under a Zeiss laser confocal microscope.
Experimental Result 11. PD Blocks Fusion of Autophagosomes with Lysosomes. Since p62 was accumulated in autophagosomes by PD treatment, it was speculated that PD may cause the lysosomal dysfunction like bafilomycin A1, which inhibits vacuolar H^+-ATPase (V-ATPase)-dependent lysosomal acidification and blocks autophagosome-lysosome fusion. Thus, the PD-treated cells with LysoTracker Red, which is a marker for acidic compartment including lysosomes was stained to examine the colocalization of GFP-LC3B.

[13] = system: cathepsin B and D; assay: Immunoblot of cathepsin B and D processing in GBM cells; format: cell-based, human; settings: addition of MβCD 100 μM to PD 10 μM-treated cells
Protocol: Immunoblot analyses for the processing of endogenous CTSB and CTSD are shown (upper, immature form/lower, mature form of CTSB and CTSD). GAPDH was used as a loading control.
as §5
To confirm whether PD functions as an autophagy inhibitor, the effects of PD on lysosomal proteases, cathepsin B and D, were examined Autophagy is a lysosome-mediated and self-degradative process that requires lysosomal cysteine proteases known as cathepsins. Since pro-cathepsins are cleaved into a mature form in lysosomes, the 33 kD active cleaved form of cathepsins has been commonly used as a marker for lysosomal activity. As can be confirmed in FIG. 13, while the mature forms of cathepsin B and D proteins were decreased, immature forms of those protein were increased after PD treatment in U87MG and U373MG cells, implying that PD suppresses a lysosomal function by downregulating the lysosomal proteolytic activity.

CCN(CC)CCO[C@H]1CC[C@@]2(C)C(=CC[C@@H]3[C@@H]2CC[C@]2(C)C(=O)CC[C@@H]32)C1 [U18666A, reference compound]
free cholesterol levels [1]: significant increase | cell surface expression of LDLR [2]: shift of the FL-1 histogram peak toward right | LDLR expression [3]: increased the LDLR expression | changes in peak shift (cell surface LDLR) [4]: very negligible | cellular cholesterol distribution (filipin-III staining) ([5]; PD 10 μM or U18666a 1 μM, 24 hours): very similar | LDL uptake [6]: less effective | LDL uptake level compared with PD [7]: similar

O=C(O)[C@H]1O[C@@H](Oc2cc3oc(-c4ccccc4)cc(=O)c3c(O)c2O)[C@H](O)[C@@H](O)[C@@H]1O [baicalin]
expression of Ax1 [8]: reduced the expression of Ax1

O=c1c(O)c(-c2ccc(O)c(O)c2)oc2cc(O)cc(O)c12 [quercetin]
expression of Ax1 [8]: reduced the expression of Ax1

methyl β-cyclodextrin [MβCD, reference compound]
colony-forming ability [9]: almost completely recovered | viability of GBM cells [10]: significantly restored the viability | changes in LC3-II and p62 levels increased by PD alone [11]: almost completely restored | accumulated cholesterol in lysosomes ([5]; PD 10 μM 24 hours, then MβCD 100 μM 48 hours): successfully depleted | colocalization of GFP-LC3B puncta with LysoTracker Red fluorescence [12]: remarkable increase | activity of cathepsin B [13]: recovered activity

— patent publication US11351218B2, “Composition for preventing or treating glioblastoma comprising Platycodon grandiflorum A. De Candolle, Scutellaria baicalensis, Phellodendron amurense Ruprecht or Rubus coreanus” (University-Industry Cooperation Group of Kyung Hee …, priority 2019, dated 2022)
